From PMC6609541, “Enterohepatic circulation of glucuronide metabolites of drugs in dog” (Pharmacology Research & Perspectives, 2019)
Several values for one entry are separate records, joined by “and”; a condition that tells them apart may be missing. Equal values may be shown once. Read-outs that look alike come from different tables or passages of the source. Marks after values point to notes of the source that are not given here.

What was measured:
[1] = target: T1, human wild‐type P‐gp (Homo sapiens, UniProt P08183); assay: Bi‐directional transport across MDCKII cells expressing human P‐gp; format: in vitro ADME; design: key to Pgp substrate: S, substrate; NS, non‐substrate; conditions: for PappA‐B / PappB‐A: 5 µmol/L compound; for P‐gp substrate: P‐gp‐transfected MDCKII cells; for P‐gp substrate / MDCK permeability (passive membrane permeability): in words; for Pgp substrate: classified from net efflux ratio (NER >3.0 = substrate); for Net efflux ratio: uninhibited ratio divided by inhibited ratio, NER >3.0 = P‐gp substrate
T1 construct: host or cells: MDCKII
Method: MDCKII cells stably expressing human wild‐type P‐gp were obtained from the Netherlands Cancer Institute Amsterdam, The Netherlands). MDCK cells were maintained and the assay was conducted essentially as described previously.12, 13 Transport was measured in both directions across uninhibited and inhibited cell monolayers using a substrate concentration of 5 μmol/L diluted from a 10 mmol/L DMSO stock solution final DMSO concentration of 0.05%) and a single 60‐min time interval.

[2] = Plasma pharmacokinetics after single intravenous administration in bile duct cannulated (BDC) and intact beagle dogs; format: in vivo, beagle dog; conditions: for EHC / AUC(0-inf) / half-life / clearance / AUC / Vd: dog; for EHC: enterohepatic circulation; for AUC(0-inf) / half-life / clearance / AUC / Vd: male, beagle, plasma, iv; for clearance: plasma clearance; for AUC: mean ± SD n=4, read-out: AUC0‐48 hr
Method: Male beagle dogs were obtained from Charles River Laboratories Inc (Wilmington, MA). Pharmacokinetic (PK) studies in intact dogs were conducted at Covance (Greenfield, IN), while bile duct cannulation surgery and PK studies were conducted in these dogs at Covance (Madison, WI). Dogs (weight: 9‐12 kg), were acclimated prior to study initiation according to Standard Operating Procedures (Covance). All intravenous compound administration was by an intravenous catheter implanted in the cephalic vein. Access to food and water was allowed ad libitum. All animal procedures were approved by the Institutional Animal Care and Use Committee at Covance. Replacement bile was not administered during the study since collection of bile was scheduled for a period of 48 hours, replacement is typically administered for studies lasting more than 60 hours.
(§1) Canagliflozin and DPTQ, both at 0.5 mg/kg, were administered intravenously in 25 mmol/L phosphate buffer (pH 8) containing 10% dimethylacetamide (v/v), 15% ethanol (v/v) via a cephalic vein. Total volume administered was 1 mL/kg. Dogs were housed in stainless steel metabolic cages during the study. Serial blood samples were collected from the jugular vein at 0.08, 0.25, 0.5, 1, 2, 4, 8, 12, 24, 36 and 48‐hours post‐dose with collection tubes containing anticoagulant K3‐EDTA. Plasma was obtained by centrifugation at 1600g for 10 minutes. Cumulative urine samples were collected between 0‐12, 12‐24, 24‐36 and 36‐48 hours and feces were collected between 0‐24 and 24‐48 hours in both intact and BDC dogs. Bile samples were collected between 0‐12, 12‐24, 24‐36, 36‐48 hours in BDC dogs. The weights of all samples except blood and plasma were recorded. All the samples were stored at −70°C until analysis by liquid chromatography tandem‐mass spectrometry (LC‐MS/MS) was performed.
Noncompartmental pharmacokinetic parameters were calculated using Watson version 7.4 (Thermo Scientific, Waltham, MA). Statistical significance of differences for pharmacokinetic parameters between two groups was examined with Student's t test using Sigmaplot 12.5 (Systat Software Inc, San Jose, CA).
(§2) Canagliflozin and DPTQ in plasma, bile, urine and feces were quantified using LC‐MS/MS. All samples plasma, urine and bile) were mixed with an organic internal standard solution essentially described previously,15 to precipitate protein and centrifuged, and the resulting supernatants were analyzed using AB Sciex API 4000 quadrupole mass spectrometer (Applied Biosystems, Foster City, CA) equipped with a TurboIonSpray interface. The feces samples were homogenized in MeOH:H2O (1:1) and shaken vigorously to obtain slurry. The homogenates then went through the sample extraction along with other matrices. The blank plasma, urine, bile and feces was spiked with internal standard for calibration curve. The pumps were Shimadzu LC‐10AD units with a SCL‐10A controller (Kyoto, Japan), and a Z‐215 liquid handler (Gilson, Middleton, WI) was used as the autosampler. All compounds were chromatographically separated using a Betasil javelin C18 20 × 2.1‐mm 5‐μm HPLC column (Thermo Fisher Scientific, Waltham, MA). The mobile phase consisted of solvent A (1 mmol/L ammonium bicarbonate in water) and solvent B (1 mmol/L ammonium bicarbonate in methanol). Drugs and metabolites were detected in positive ion mode, using selected ion mode: canagliflozin 462.2 → 191.1 m/z, DPTQ 436.2 → 158.9 m/z, and DPTQ‐O‐glucuronide 612.2 → 418.1.

[3] = Recovery of parent drug and glucuronide metabolites in urine, bile and feces of BDC and intact dogs; format: in vivo, beagle dog; conditions: for % dose in feces, Parent / % dose in bile, Parent / renal excretion of parent drug / % dose in urine, Parent: 0.5 mg/kg IV; for % dose in feces, Parent / % dose in bile, Parent / % dose in urine, Parent: over 48 hours; for % dose in bile, Parent: 0.5 mg/kg; for renal excretion of parent drug: dog (BDC and intact); for Biliary excretion % of glucuronide / Urinary excretion % of glucuronide: dog; for Biliary excretion % of glucuronide: BDC; for Urinary excretion % of glucuronide: BDC and/or intact
Method: as §1
Aliquots of plasma, urine, bile or feces homogenate (50 µL) were incubated with equal volume of 0.2 mol/L sodium acetate buffer (pH 5.0), and 15 μL of β‐glucuronidase (>85 000 units/mL) in a 37°C water bath overnight. The samples were extracted for LC‐MS/MS after the hydrolysis was performed. […] The concentration of O‐glucuronides was determined by subtracting the concentration from the aliquot without treatment of β‐glucuronidase from the one with enzyme treatment.
as §2

[4] = test system: cryopreserved human hepatocytes; assay: Hepatocyte metabolite profile with and without ABT (human); format: in vitro ADME; conditions: 4 h, 2 μmol/L
Method: Cryopreserved dog and human hepatocytes were obtained from BioreclamationIVT (Baltimore, MD). […] A stock solution of canagliflozin and DTPQ was added to medium to give a final incubation concentration of 2 μmol/L. The incubations including the media and cells were quenched after 4 hours with an equal volume of acetonitrile containing 200 ng/mL niflumic acid as internal standard. Samples were centrifuged at 3500 g for 10 minutes and the supernatant was analyzed by liquid chromatography coupled to a diode array UV detection and mass spectrometry system consisting of the Acquity ultra‐performance liquid chromatography column, Synapt G2‐S mass spectrometer, and an ultra‐performance liquid chromatography photodiode array detector (Waters, Milford, MA). The chromatographic separation of metabolites was achieved on a Waters 1.7‐μm Acquity BEH C18 (100 × 2.1 mm) column maintained at 60°C. The mobile phase consisted of solvent A (0.2% formic acid in water for DPTQ and 10 mmol/L ammonium acetate in water for canagliflozin) and solvent B (100% acetonitrile). The samples were eluted, at a flow rate of 0.5 mL/min with a gradient for 5 minutes. The LC/MS full scan data were processed by Metabolynx (Waters, Milford, MA) to identify metabolites. Product ion spectra were acquired to confirm the metabolites. The mass spectrometer was operated in positive ion mode with an electrospray ionization source. The parameters for the chamber were: capillary 1.0 kV, sample cone 50 V, source temperature 120°C, desolvation 500°C, and collision energy 25 V. The peak areas for parent, metabolite and internal standard were integrated to allow for comparison between conditions.

[5] = MDR1‐MDCKII_inhibitor (2.5 µmol/L P‐gp inhibitor LSN335984)
[6] = 0.5 mg/kg, BDC dog, 0.5 mg/kg IV bolus
[7] = 0.5 mg/kg, BDC dog, 0.5 mg/kg IV bolus, read-out: V dss
[8] = 0.5 mg/kg, intact dog, 0.5 mg/kg IV bolus

T1 sequence (P08183 whole entry): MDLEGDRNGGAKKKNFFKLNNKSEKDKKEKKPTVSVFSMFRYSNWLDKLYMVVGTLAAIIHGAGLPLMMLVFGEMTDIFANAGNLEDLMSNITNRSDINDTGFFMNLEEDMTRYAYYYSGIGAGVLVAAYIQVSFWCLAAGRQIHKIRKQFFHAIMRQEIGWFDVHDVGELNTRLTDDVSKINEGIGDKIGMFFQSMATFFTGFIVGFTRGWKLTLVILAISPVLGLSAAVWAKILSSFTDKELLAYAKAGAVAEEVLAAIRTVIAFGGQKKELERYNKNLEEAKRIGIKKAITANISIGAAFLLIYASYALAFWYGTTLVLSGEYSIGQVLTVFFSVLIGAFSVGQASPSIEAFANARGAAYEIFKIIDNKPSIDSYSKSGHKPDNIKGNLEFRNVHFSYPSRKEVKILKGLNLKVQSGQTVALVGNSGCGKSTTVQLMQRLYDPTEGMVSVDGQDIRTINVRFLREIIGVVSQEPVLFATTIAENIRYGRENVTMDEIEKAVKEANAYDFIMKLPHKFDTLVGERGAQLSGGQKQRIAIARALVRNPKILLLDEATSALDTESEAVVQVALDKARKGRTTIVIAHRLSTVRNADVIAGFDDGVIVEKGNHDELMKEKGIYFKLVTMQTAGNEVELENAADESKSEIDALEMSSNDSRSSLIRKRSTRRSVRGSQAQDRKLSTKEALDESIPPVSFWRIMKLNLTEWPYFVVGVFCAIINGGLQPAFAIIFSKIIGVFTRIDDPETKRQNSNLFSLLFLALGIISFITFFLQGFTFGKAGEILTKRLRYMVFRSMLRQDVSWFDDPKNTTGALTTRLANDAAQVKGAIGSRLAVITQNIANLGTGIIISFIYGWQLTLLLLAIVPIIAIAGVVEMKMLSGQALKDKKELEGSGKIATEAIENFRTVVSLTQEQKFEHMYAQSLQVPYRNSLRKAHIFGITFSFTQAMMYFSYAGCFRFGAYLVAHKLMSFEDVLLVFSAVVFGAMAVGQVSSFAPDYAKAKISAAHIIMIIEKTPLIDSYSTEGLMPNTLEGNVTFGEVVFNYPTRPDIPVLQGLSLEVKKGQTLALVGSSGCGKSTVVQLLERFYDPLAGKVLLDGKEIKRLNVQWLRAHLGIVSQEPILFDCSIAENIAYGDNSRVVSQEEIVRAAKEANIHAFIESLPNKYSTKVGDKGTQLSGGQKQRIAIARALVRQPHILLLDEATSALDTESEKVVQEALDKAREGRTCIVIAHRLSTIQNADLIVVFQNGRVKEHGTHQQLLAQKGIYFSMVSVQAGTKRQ

Compound | PappB‐A/PappA‐B ([1]; MDR1‐MDCKII_control) | PappA‐B ([1]; MDR1‐MDCKII_control) | PappB‐A ([1]; MDR1‐MDCKII_control) | PappB‐A/PappA‐B ([1]; MDR1‐MDCKII_inhibitor) | PappA‐B [1, 5] | PappB‐A [1, 5] | P‐gp substrate [1] | Pgp substrate [1] | MDCK permeability (passive membrane permeability) [1] | EHC [2] | AUC(0-inf) [2, 6] | half-life [2, 6] | clearance [2, 6] | AUC [2, 6] | Vd [2, 7] | AUC [2, 8] | % dose in feces, Parent ([3]; BDC dog) | % dose in bile, Parent ([3]; BDC dog) | renal excretion of parent drug [3] | Biliary excretion % of glucuronide [3] | other results
C[C@H]1c2cccc(CC(C)(C)O)c2C[C@H](CO)N1C(=O)Cc1c(Cl)cccc1Cl [DPTQ, 2‐(2,6‐dichlorophenyl)‐1‐((1S,3R)‐5‐(2‐hydroxy‐2‐methylpropyl)‐3‐(hydroxymethyl)‐1‐methyl‐3,4‐dihydroisoquinolin‐2(1H)‐yl)ethan‐1‐one] | 1.5 | 43.0 ± 4.5 10^–6cm/s | 62.6 ± 2.6 10^–6cm/s | 1.1 | 48.9 ± 5.9 10^–6cm/s | 53.5 ± 0.4 10^–6cm/s | not a P‐gp substrate and no | NS | high and High | Yes | 5.89 ± 3.3 µM·h | 2.5 ± 2.3 h | 4.43 ± 3.1 mL/min/kg | 5.89 ± 3.3 µM·h | 0.33 ± 0.07 L/kg | 7.94 ± 2.5 µM·h | 2.48 ± 4.8 % dose | 8.91 % dose and 8.91 ± 8.9 % dose | < 1 % of dose | Moderate (moderate 30%‐70%) | CL0‐48 h ([2]; intact dog, 0.5 mg/kg IV bolus, AUCinf not extrapolated, CL from AUC0‐48 hours, 0.5 mg/kg): 2.73 mL/min/kg and 2.73 ± 1.2 mL/min/kg; Vd ([2]; 0.5 mg/kg, intact dog, 0.5 mg/kg IV bolus, AUCinf not extrapolated, read-out: V dss 0‐48 hr): 1.48 ± 0.25 L/kg; Urinary excretion % of glucuronide [3]: Low (Low 0%‐30%); % dose in feces, Parent ([3]; intact dog): 13.5 ± 5.8 ^a % dose; % dose in urine, Parent ([3]; intact dog): 0.64 ± 1.1 % dose; Peak area (+ABT) [4]: 2364; Peak area (‐ABT) [4]: 2810
Cc1ccc([C@@H]2O[C@H](CO)[C@@H](O)[C@H](O)[C@H]2O)cc1Cc1ccc(-c2ccc(F)cc2)s1 [Canagliflozin] | 22 | 4.0 ± 1.8 10^–6cm/s | 89.2 ± 8.2 10^–6cm/s | 1.3 | 10.8 ± 1.4 10^–6cm/s | 14.1 ± 0.1 10^–6cm/s | yes | S | Moderate | No | 16.4 ± 5.9 µM·h | 10.9 ± 1.8 h | 1.32 ± 0.5 mL/min/kg | 15.7 ± 5.4 µM·h | 0.87 ± 0.28 L/kg | 20.7 ± 3.7 µM·h | 3.3 ± 0.7 % dose | 4.66 ± 1.4 % dose | < 1 % of dose | Low (Low 0%‐30%) | P‐gp substrate ([1]; listed as canagliflozin): P‐gp substrate; MDCK permeability (passive membrane permeability) ([1]; listed as canagliflozin): moderate; Net efflux ratio [1]: 17.1; Net efflux ratio ([1]; listed as canagliflozin): > 3; AUC(0-inf) [2, 8]: 21.2 ± 3.9 µM·h; half-life [2, 8]: 8.05 ± 0.62 h; clearance [2, 8]: 0.93 ± 0.18 mL/min/kg; Vd ([2]; 0.5 mg/kg, intact dog, 0.5 mg/kg IV bolus, read-out: V dss): 0.72 ± 0.13 L/kg; % dose in urine, Parent ([3]; BDC dog, ND = below quantitative limit 1 ng/mL): 0.05 ± 0.08 % dose; % dose in bile, Parent ([3]; BDC dog, listed as canagliflozin): 4.66 % dose; Urinary excretion % of glucuronide [3]: Low (Low 0%‐30%); % dose in feces, Parent ([3]; intact dog): 2.25 ± 1.3 % dose; % dose in urine, Parent ([3]; intact dog): 0.27 ± 0.15 % dose; Peak area (+ABT) [4]: 2019; Peak area (‐ABT) [4]: 3414
